# Test results: ChEMBL document CHEMBL1201862, “PubChem BioAssay data set” (2004)
# Activity calls are given as the source filed them.
# Key:
# cells [1] = type: functional, cell-based
# [2] = target: T1, Trace amine-associated receptor 1 (Homo sapiens, UniProt Q96RJ0); assay: Counterscreen for agonists of the human trace amine associated receptor 1 (hTAAR1): Fluorescence-based cell-based high throughput dose response assay to identify hTAAR1 agonist that also desensitize TAAR1 receptor response.; type: functional
# T1 sequence (Q96RJ0 whole entry): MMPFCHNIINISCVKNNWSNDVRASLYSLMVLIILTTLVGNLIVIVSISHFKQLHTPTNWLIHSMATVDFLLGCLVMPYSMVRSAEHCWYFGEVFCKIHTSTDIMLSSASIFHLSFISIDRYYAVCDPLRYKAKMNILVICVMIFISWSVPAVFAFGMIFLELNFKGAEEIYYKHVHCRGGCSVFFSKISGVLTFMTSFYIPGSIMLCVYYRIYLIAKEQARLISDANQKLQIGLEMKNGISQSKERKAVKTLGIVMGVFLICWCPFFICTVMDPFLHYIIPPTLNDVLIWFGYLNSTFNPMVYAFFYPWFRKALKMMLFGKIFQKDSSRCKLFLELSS
# [3] = target: T1, Trace amine-associated receptor 1; assay: Fluorescence-based cell-based high throughput dose response assay to identify agonists of the human trace amine associated receptor 1 (TAAR1).; type: functional
# cells [4] = type: functional, cell-based; remark: listed apart in the source
# [5] = target: T2, Heat shock factor protein 1 (Mus musculus, UniProt P38532); assay: inhibition of MG132-induced HSE-luciferase signal, confirmation, cell-based, NIH3T3, luminescence, dose retest (AID 2382); type: functional;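 note: NIH3T3 fibroblasts with HSF1-driven luciferase reporter stressed by proteasome inhibitor MG132; luminescence from HSF1-driven luciferase expression after 8 hours of MG132 stress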
# T2 sequence (P38532 whole entry): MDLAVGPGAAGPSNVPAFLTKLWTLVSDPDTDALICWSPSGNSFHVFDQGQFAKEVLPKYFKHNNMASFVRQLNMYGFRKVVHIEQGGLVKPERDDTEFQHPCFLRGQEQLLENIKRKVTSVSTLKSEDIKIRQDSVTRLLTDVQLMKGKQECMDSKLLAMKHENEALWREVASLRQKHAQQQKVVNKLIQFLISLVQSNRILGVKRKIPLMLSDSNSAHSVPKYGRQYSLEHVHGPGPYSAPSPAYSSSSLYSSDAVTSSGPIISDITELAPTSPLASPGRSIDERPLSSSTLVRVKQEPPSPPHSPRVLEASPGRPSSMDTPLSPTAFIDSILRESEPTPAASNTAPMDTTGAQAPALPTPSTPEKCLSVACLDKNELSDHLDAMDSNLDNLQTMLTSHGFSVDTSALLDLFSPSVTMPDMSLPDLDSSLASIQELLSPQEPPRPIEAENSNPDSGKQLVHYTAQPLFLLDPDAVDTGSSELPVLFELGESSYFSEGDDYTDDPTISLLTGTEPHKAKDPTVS
# [6] = target: Fructose-bisphosphate aldolase (Mycobacterium tuberculosis, UniProt P9WQA3); assay: Fluorescence-based biochemical high throughput dose response assay for inhibitors of the fructose-bisphosphate aldolase (FBA) of M. tuberculosis.; type: functional
# [7] = target: Voltage-dependent T-type calcium channel subunit alpha-1H (Homo sapiens, UniProt O95180); type: functional;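 note: channel activity triggered by adding a high calcium stimulation buffer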
# [8] = target: T3, Corticotropin-releasing factor receptor 2/Corticotropin-releasing factor-binding protein (Homo sapiens, UniProt P24387+Q13324); assay: Dose Response confirmation of uHTS hits for small molecule antagonists of the CRF-binding protein and CRF-R2 receptor complex.; type: functional; settings: read-out: IC50_Mean
# T3 sequence (Q13324 whole entry): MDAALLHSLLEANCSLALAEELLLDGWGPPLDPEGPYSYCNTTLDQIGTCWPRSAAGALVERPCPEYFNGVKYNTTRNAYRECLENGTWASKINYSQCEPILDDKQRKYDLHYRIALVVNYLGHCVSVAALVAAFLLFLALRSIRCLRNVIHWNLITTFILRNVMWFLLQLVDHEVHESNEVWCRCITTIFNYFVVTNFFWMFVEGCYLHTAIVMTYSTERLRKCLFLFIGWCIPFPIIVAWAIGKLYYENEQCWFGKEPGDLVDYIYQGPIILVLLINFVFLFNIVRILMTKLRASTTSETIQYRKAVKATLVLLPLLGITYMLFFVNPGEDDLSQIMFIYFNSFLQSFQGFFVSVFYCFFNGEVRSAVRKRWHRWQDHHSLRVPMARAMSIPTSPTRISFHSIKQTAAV
# T3 sequence (P24387 whole entry): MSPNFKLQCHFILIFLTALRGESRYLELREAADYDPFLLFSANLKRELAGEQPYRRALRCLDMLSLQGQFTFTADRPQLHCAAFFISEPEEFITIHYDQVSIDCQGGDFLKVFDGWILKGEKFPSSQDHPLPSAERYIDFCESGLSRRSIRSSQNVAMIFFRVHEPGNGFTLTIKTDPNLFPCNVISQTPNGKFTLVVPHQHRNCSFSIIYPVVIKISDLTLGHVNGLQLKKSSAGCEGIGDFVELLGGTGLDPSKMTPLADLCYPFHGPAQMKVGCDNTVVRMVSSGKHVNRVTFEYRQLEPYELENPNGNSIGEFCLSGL
# Beta-galactosidase = Beta-galactosidase (Escherichia coli, UniProt Q8VNN2); assay: Dose response counterscreen for EBI2 assay utilizing the enzyme, b-galactosidase.; type: functional
# [9] = target: T3, Corticotropin-releasing factor receptor 2/Corticotropin-releasing factor-binding protein; assay: activators of CRF receptor 2 with binding protein – uHTS hits, confirmation (AID 602473); type: functional; settings: read-out: EC50_Mean
# [10] = inhibitors of intracellular T. cruzi replication, confirmation, NIH3T3 host cells, beta-gal luminescence (AID 2044); type: functional, cell-based;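 note: intracellular parasites grown in NIH/3T3 mouse fibroblasts as host cells; luminescent beta-galactosidase reporter signal from transgenic T. cruzi replicating inside host cells; inhibitors lower the luminescence signal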
# [11] = cytotoxicity toward NIH3T3 fibroblasts, dose response, counter-screen, cell-based, ATP luminescence, mouse fibroblasts (AID 2010); type: functional;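 note: cells exposed to compound for about 90 hours before reading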
# [12] = target: 5-hydroxytryptamine receptor 2A (Mus musculus, UniProt P35363); type: functional, cell-based;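 note: CHO-K1 cells with tagged receptor and beta-arrestin; agonist potency measured as compound-induced activation of the receptor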
# [13] = target: T4, Calpain-2 catalytic subunit (Sus scrofa, UniProt P43367); assay: pig calpain II inhibitor potency, dose response, biochemical, fluorogenic peptide substrate (AID 1420); type: functional
# T4 sequence (P43367 whole entry): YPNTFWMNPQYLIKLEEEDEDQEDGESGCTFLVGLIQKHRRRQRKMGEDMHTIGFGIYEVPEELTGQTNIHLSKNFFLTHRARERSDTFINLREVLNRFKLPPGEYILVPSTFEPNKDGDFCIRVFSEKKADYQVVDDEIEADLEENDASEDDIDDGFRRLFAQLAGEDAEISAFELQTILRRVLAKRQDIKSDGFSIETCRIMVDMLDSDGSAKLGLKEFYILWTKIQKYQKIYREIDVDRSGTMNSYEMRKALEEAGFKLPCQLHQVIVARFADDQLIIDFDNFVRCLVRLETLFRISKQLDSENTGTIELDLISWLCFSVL
# Mu-type opioid receptor = Mu-type opioid receptor (Homo sapiens, UniProt P35372); type: functional, cell-based;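 note: U2OS cells with beta-arrestin recruitment to OPRM1 by beta-gal complementation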
# [14] = target: T2, Heat shock factor protein 1; assay: HSF1 potentiators in luciferase reporter cells, confirmation, cell-based, NIH3T3, luminescence, dose retest (AID 435004); type: functional;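 note: stress induced by proteasome inhibitor MG132 added 30 min after compound; luciferase reporter driven by HSF1 response element in NIH3T3 cells; actives raise luminescence as potentiators of the MG132 stress response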
# [15] = target: T5, Ubiquitin-conjugating enzyme E2 N (Homo sapiens, UniProt P61088); type: functional;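 note: Dose-response confirmation in a TR-FRET assay detecting UBC13-driven polyubiquitin chain formation, inhibition measured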
# T5 sequence (P61088 whole entry): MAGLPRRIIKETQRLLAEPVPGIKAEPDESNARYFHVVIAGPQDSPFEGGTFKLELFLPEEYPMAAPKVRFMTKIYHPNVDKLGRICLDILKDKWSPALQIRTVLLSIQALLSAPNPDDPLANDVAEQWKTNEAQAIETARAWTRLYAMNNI
# [16] = CEM21 lymphoblast cell cytotoxicity, dose response, cytotoxicity control for viral fusion inhibitor project, CellTiter-Glo luminescence, cherry-picked (AID 652042); type: functional, cell-based;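 note: potency for signal decrease meaning cytotoxicity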
# HEK293 [17] = assay: cells; settings: Homo sapiens
# Melanocortin receptor 4 = Melanocortin receptor 4 (Homo sapiens, UniProt P32245); type: functional, cell-based;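 note: Cell-based assay with luminescence read-out, confirmatory dose-response testing for agonist activity of biased ligands at MC4R; human U2OS cells with tagged receptor and beta-arrestin; potency of agonists that increase receptor coupling to beta-arrestin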
# [18] = off-target signal loss in HeLa-CEM21 co-culture – HeLa F-luc CTL cells, cherry-picked, counter-screen for HIV-1 Env fusion inhibitor project, dose response (AID 652040); type: functional, cell-based;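 note: potency for signal decrease marking cytotoxic or nonspecific inhibition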
# [19] = inhibitors of HIV Env-driven cell fusion, dose response, cherry-pick (AID 652057); type: functional, cell-based
# HEK293 [20] = assay: cells; settings: Homo sapiens; remark: listed apart in the source
# [21] = ZM109 Env clade C HIV-1 fusion inhibitors, dose response, HeLa effector, CEM target cells, luciferase, cherry-pick (AID 652058); type: functional, cell-based
# H4 = assay: Luminescence Cell-Based Dose Response HTS to Identify Activators of 5'UTR Stem-Loop Driven Prion Protein mRNA Translation in H4 Neuroglioblastoma Cells. [Related pubchem assays: 1829 (Project Summary), 1814 (Primary HTS)]; type: functional; settings: Homo sapiens
# [22] = inhibitors of clade B AD8 Env fusion, dose response, cell-based, cherry-pick (AID 652062); type: functional;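 note: luciferase signal from cell-cell fusion driven by HIV-1 clade B AD8 Env; potency is for inhibitors of fusion seen as a drop in luminescence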
# [23] = Luminescence Cell-Based Dose Confirmation HTS to Identify Activators of 5'UTR Stem-Loop Driven Alpha-Synuclein mRNA Translation in H4 Neuroglioblastoma Cells. [Related pubchem assays: 1829 (Project Summary), 1814 (Primary HTS)]; type: functional
# [24] = Luminescence Cell-Based Dose Response HTS to Identify Activators of Luciferase Translation or Activity in H4 […] Cells. [Related pubchem assays: 1829 (Project Summary), 1814 (Primary HTS)]; type: functional
# [25] = target: DNA repair protein RAD52 homolog (Homo sapiens, UniProt P43351); type: functional, biochemical
# [26] = target: T6, DNA repair and recombination protein RAD54-like (Homo sapiens, UniProt Q92698); assay: inhibitors of human RAD54 branch migration, confirmation, biochemical, fluorescence, cherry-picked samples, dose series (AID 651657); type: functional
# T6 sequence (Q92698 whole entry): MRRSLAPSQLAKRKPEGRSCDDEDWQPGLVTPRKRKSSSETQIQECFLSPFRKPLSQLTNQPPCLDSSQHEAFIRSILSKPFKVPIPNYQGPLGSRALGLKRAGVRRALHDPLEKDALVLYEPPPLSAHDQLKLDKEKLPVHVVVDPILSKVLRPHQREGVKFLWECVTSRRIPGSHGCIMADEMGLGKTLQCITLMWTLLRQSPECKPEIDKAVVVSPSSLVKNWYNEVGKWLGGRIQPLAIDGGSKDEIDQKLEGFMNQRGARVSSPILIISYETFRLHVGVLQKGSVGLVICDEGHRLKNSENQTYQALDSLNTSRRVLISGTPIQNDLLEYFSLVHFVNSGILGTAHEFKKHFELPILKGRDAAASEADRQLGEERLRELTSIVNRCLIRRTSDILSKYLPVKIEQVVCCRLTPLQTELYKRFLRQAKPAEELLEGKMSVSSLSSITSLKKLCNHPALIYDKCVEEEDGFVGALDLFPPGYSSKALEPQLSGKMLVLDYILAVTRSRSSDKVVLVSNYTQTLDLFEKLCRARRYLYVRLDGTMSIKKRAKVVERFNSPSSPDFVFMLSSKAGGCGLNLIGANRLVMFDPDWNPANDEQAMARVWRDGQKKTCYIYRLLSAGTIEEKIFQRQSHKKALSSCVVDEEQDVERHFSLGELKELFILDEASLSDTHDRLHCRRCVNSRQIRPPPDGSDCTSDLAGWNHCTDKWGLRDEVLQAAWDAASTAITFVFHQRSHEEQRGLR
# 5-hydroxytryptamine receptor 2A, sequence (P35363 whole entry): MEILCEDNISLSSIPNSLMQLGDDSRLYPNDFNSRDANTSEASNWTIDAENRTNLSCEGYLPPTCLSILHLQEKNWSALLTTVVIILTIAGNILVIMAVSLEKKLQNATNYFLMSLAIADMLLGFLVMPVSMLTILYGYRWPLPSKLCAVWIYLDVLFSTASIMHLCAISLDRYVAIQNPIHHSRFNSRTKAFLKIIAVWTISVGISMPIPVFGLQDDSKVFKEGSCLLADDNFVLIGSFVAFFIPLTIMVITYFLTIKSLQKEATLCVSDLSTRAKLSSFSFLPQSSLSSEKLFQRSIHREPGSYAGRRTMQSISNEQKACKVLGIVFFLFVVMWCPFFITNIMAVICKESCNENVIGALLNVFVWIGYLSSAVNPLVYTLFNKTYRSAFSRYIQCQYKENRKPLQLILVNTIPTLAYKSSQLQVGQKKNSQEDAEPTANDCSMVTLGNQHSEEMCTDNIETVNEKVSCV
# Mu-type opioid receptor, sequence (P35372 whole entry): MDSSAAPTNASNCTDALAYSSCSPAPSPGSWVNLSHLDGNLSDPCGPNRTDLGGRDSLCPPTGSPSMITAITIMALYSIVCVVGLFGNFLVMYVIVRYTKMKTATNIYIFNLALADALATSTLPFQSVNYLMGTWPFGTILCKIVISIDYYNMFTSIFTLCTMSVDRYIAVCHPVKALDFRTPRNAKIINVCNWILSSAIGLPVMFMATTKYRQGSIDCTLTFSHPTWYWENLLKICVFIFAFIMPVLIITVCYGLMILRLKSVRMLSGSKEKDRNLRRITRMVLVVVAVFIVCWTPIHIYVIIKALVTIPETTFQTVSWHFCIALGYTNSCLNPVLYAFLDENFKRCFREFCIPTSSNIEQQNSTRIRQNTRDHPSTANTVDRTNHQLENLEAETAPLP
# Fructose-bisphosphate aldolase, sequence (P9WQA3 whole entry): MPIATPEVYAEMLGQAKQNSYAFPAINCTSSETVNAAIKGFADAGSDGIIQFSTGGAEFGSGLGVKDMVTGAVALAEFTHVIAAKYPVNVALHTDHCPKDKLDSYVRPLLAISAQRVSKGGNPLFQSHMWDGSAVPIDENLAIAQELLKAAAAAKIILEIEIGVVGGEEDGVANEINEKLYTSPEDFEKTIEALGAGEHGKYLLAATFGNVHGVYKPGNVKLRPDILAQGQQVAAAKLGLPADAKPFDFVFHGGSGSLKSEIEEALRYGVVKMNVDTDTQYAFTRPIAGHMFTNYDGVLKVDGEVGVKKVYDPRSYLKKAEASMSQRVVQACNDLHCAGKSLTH
# Beta-galactosidase, sequence (Q8VNN2 whole entry): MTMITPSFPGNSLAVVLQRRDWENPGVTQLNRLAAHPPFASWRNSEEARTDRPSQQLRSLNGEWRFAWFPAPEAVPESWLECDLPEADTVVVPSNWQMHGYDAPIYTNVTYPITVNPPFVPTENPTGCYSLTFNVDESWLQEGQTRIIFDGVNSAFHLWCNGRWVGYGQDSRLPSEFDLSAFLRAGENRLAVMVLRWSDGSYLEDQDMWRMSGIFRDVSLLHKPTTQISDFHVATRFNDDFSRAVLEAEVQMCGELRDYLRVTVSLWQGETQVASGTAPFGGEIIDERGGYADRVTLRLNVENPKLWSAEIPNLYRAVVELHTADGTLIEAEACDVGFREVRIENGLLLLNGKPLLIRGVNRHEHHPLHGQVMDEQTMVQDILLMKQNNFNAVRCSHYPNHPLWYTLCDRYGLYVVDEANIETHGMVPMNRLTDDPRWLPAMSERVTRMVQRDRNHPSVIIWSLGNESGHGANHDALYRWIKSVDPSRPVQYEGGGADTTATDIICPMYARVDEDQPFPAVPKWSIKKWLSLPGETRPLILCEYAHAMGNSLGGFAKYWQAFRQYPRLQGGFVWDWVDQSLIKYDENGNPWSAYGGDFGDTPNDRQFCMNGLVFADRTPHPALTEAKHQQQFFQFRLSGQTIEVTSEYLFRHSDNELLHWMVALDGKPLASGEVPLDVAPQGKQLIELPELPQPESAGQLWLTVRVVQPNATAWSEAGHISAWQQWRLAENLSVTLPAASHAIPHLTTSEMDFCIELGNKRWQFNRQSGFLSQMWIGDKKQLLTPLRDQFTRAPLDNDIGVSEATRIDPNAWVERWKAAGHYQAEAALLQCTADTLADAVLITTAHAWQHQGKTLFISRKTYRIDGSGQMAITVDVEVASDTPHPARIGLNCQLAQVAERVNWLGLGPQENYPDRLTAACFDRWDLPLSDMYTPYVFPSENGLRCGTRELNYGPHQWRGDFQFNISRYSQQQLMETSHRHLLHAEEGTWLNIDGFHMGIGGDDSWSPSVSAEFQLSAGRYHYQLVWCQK
# DNA repair protein RAD52 homolog, sequence (P43351 whole entry): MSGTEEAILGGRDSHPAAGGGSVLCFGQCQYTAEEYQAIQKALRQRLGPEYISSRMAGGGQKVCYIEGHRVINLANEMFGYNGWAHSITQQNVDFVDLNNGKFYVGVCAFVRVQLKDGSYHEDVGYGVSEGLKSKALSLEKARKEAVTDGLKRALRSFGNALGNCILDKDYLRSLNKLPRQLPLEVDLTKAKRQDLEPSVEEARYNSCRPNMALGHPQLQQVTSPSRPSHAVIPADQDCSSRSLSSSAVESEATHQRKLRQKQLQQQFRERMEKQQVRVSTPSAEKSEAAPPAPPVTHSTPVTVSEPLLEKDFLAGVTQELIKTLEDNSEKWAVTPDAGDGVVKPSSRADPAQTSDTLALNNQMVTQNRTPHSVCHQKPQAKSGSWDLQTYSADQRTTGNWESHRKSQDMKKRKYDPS
# Voltage-dependent T-type calcium channel subunit alpha-1H, sequence (O95180 whole entry): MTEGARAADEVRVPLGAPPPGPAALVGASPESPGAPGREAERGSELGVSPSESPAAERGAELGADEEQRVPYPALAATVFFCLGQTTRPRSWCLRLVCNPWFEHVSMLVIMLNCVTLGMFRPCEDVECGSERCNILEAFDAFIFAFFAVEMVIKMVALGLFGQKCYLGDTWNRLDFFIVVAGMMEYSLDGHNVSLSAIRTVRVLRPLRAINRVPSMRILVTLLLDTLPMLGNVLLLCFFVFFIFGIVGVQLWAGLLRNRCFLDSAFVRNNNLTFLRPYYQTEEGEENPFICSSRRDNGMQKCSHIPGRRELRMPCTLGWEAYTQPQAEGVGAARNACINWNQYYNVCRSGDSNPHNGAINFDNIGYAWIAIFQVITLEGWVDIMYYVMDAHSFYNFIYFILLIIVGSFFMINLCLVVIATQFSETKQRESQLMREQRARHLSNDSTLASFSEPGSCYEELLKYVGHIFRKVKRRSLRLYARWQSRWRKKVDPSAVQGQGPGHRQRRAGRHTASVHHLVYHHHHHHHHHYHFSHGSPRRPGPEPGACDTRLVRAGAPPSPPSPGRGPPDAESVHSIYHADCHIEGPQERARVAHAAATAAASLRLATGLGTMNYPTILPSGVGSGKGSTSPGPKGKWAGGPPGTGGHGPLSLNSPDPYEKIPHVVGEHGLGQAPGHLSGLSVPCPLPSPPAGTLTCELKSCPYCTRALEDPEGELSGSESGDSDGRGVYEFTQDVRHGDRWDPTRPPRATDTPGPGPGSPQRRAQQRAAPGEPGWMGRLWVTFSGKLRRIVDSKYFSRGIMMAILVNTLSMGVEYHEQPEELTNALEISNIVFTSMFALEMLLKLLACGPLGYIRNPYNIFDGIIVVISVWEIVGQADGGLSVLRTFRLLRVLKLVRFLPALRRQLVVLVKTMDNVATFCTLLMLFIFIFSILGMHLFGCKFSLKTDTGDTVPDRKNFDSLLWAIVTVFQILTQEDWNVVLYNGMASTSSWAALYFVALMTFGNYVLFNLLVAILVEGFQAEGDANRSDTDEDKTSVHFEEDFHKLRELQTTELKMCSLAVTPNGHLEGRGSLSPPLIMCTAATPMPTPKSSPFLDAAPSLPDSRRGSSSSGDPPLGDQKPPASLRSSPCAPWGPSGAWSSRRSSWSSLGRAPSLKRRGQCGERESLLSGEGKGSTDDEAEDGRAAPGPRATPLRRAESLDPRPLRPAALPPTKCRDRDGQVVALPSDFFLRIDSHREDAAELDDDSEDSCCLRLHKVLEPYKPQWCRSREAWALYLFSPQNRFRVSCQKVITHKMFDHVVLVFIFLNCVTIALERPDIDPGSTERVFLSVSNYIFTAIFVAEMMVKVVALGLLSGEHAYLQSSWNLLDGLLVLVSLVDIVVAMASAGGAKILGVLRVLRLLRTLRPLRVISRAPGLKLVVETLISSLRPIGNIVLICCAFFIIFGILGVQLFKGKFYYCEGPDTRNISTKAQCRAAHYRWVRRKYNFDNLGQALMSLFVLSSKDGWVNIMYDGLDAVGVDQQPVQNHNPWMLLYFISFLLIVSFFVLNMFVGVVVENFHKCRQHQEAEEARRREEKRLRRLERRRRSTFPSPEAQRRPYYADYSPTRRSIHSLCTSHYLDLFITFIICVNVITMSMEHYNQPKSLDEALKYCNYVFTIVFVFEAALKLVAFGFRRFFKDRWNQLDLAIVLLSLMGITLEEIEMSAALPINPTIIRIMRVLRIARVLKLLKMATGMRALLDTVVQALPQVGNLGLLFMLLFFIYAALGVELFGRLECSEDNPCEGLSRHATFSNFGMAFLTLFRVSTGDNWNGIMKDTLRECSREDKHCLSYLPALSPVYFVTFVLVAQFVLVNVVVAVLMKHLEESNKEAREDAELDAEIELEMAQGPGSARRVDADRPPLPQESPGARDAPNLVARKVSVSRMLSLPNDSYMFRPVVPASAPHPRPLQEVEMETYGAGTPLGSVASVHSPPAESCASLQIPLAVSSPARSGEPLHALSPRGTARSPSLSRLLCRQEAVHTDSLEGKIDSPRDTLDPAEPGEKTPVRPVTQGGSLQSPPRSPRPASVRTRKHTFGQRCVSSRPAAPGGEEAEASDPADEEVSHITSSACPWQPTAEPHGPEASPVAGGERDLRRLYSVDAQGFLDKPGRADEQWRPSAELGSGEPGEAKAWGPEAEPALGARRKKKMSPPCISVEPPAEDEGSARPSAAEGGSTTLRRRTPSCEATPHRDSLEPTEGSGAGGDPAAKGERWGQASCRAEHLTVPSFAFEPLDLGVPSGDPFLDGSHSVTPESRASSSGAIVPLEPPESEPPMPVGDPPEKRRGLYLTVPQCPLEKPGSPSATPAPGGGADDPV
smiles,measurement,setting,value
O=C(CC1C(=O)NCCN1Cc1ccccn1)NCCc1ccccc1F (stereo not drawn),EC50,cells [1],> 29.9 µM (inactive)
same,IC50,[2],5.23 µM (active)
same,EC50,[3],2.12 µM (active)
same,IC50,cells [4],> 29.9 µM (inactive)
Cc1c(O)ccc2c(CC(=O)N[C@@H](Cc3ccc(O)cc3)C(=O)O)cc(=O)oc12,EC50,[5],> 195 µM (not active)
same,IC50,[6],0.906 µM (active)
Cc1ccc(OCC(=O)N2CCN(c3nnc(-c4ccc(C)cc4)c4ccccc34)CC2)cc1,EC50,[7],2.35 µM (active)
same,IC50,[8],> 47.1 µM (inactive)
same,IC50,Beta-galactosidase,> 80 µM (inactive)
same,EC50,[9],> 53 µM (inactive)
same,EC50,[10],3.12 µM (active)
same,EC50,[11],> 60 µM (not active)
O=[N+]([O-])c1ccc(OCC(O)CN2CCN(c3ccccc3F)CC2)cc1 (stereo not drawn),EC50,[12],76.1 µM (inactive)
same,IC50,[13],> 50 µM (not active)
same,EC50,Mu-type opioid receptor,92.5 µM (inactive)
CCN(CC)S(=O)(=O)c1cc(NC(=O)CN2CCN(c3ccccn3)CC2)ccc1C,EC50,[12],0.761 µM (active)
same,EC50,Mu-type opioid receptor,92.5 µM (inactive)
CN1CCN(C(=O)c2cc3sc4ccccc4c3s2)CC1,IC50,Beta-galactosidase,> 80 µM (inactive)
same,EC50,[14],> 260 µM (inactive)
Cc1c(CCOC(=O)CC23CC4CC(CC(C)(C4)C2)C3)sc[n+]1CC(=O)c1ccccc1,IC50,[15],> 20 µM (inactive)
same,AC50,[16],16.8 µM (active)
same,EC50,HEK293 [17],> 59.6 µM (inactive)
same,EC50,Melanocortin receptor 4,> 89.2 µM (inactive)
same,AC50,[18],4.35 µM (active)
same,AC50,[19],3.05 µM (active)
same,EC50,HEK293 [20],> 59.6 µM (inactive)
same,AC50,[21],3.85 µM (active)
same,EC50,H4,> 120 µM (not active)
same,AC50,[22],12.7 µM (active)
same,EC50,[23],> 120 µM (not active)
same,EC50,[24],> 120 µM (not active)
CC(NNC(=S)N1CCCCCC1)c1ccc2ccccc2n1 (stereo not drawn),AC50,[16],1.59 µM (active)
CN(C)c1ccc(-c2ccnc3c2CC(C)(C(=O)NCc2cccs2)O3)cc1 (stereo not drawn),IC50,[6],0.56 µM (active)
COc1ccc(-c2cc3nc(NCCN4CCCC4)n(C)c(=O)c3s2)cc1OC,AC50,[25],2.43 µM (active)
same,AC50,[26],11.6 µM (active)
Cc1ccccc1C(=O)N[C@H](C(=O)N1CCC[C@H]1C(=O)NCCc1ccccc1Cl)c1ccccc1,EC50,cells [1],> 29.9 µM (inactive)
same,IC50,[2],7.72 µM (active)
same,EC50,[3],6.12 µM (active)
same,IC50,cells [4],> 29.9 µM (inactive)
CCCN(CCC)CCCNC(=S)Nc1ccc2nc(N3CCN(C)CC3)cc(C)c2c1,AC50,[25],5.96 µM (active)
same,AC50,[26],31.9 µM (active)
same,EC50,[10],2.24 µM (active)
same,EC50,[11],> 60 µM (not active)
